Measured values reported in ChEMBL document CHEMBL3286253, “Design, synthesis, and structure-activity relationship studies of novel thioether pleuromutilin derivatives as potent antibacterial agents” (J Med Chem, 2014).
Values after ≈ are worked out from the molar mass of the structure shown.

Columns and labels:
[1] = tested on: Staphylococcus aureus; experiment: Antibacterial activity against methicillin-resistant Staphylococcus aureus after 16 hrs by agar dilution method; type: functional
[2] = tested on: Streptococcus pneumoniae; experiment: Antibacterial activity against penicillin-resistant Streptococcus pneumoniae after 16 hrs by agar dilution method; type: functional
[3] = target: Cytochrome P450 2C19 (Homo sapiens, UniProt P33261); experiment: Inhibition of CYP2C19 in human liver microsomes using mephenytoin as substrate after 15 mins by LC/MS/MS analysis
Cytochrome P450 2C19, sequence (P33261 whole entry): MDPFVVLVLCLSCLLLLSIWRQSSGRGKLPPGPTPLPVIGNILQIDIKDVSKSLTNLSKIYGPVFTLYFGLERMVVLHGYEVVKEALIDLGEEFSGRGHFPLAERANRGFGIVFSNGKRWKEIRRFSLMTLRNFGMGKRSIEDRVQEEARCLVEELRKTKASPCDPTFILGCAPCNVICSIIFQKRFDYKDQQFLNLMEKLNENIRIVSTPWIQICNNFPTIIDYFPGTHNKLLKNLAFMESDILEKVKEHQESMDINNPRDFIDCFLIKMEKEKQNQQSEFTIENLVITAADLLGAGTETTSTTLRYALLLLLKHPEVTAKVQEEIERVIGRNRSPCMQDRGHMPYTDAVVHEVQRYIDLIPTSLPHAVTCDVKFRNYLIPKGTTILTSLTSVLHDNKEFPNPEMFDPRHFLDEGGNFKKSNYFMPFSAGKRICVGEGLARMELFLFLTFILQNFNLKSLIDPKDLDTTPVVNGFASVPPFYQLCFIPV

[4] = target: T1, Cytochrome P450 3A4 (Homo sapiens, UniProt P08684); experiment: Inhibition of CYP3A4 in human liver microsomes using testosterone as substrate after 15 mins by LC/MS/MS analysis
T1 sequence (P08684 whole entry): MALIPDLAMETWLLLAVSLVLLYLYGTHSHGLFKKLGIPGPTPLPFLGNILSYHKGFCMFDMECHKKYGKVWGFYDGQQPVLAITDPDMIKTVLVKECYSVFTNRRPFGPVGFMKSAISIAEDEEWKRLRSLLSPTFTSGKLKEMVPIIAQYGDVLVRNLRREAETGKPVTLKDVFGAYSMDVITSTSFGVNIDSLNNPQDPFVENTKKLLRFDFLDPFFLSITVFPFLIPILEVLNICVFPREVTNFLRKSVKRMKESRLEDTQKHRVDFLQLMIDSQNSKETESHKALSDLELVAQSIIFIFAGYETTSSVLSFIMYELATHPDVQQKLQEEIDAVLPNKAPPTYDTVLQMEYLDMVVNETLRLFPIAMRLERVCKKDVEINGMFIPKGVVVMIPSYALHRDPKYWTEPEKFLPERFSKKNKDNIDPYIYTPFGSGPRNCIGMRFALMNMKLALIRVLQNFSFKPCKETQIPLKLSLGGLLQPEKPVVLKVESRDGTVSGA

[5] = target: T1, Cytochrome P450 3A4; experiment: Inhibition of CYP3A4 in human liver microsomes using midazolam as substrate after 15 mins by LC/MS/MS analysis
[6] = tested on: Staphylococcus epidermidis; experiment: Antibacterial activity against methicillin-sensitive Staphylococcus epidermidis after 16 hrs by agar dilution method; type: functional
[7] = tested on: Staphylococcus aureus; experiment: Antibacterial activity against Staphylococcus aureus […] after 16 hrs by agar dilution method; type: functional
[8] = target: Cytochrome P450 2D6 (Homo sapiens, UniProt P10635); experiment: Inhibition of CYP2D6 in human liver microsomes using dextromethorphan as substrate after 15 mins by LC/MS/MS analysis
Cytochrome P450 2D6, sequence (P10635 whole entry): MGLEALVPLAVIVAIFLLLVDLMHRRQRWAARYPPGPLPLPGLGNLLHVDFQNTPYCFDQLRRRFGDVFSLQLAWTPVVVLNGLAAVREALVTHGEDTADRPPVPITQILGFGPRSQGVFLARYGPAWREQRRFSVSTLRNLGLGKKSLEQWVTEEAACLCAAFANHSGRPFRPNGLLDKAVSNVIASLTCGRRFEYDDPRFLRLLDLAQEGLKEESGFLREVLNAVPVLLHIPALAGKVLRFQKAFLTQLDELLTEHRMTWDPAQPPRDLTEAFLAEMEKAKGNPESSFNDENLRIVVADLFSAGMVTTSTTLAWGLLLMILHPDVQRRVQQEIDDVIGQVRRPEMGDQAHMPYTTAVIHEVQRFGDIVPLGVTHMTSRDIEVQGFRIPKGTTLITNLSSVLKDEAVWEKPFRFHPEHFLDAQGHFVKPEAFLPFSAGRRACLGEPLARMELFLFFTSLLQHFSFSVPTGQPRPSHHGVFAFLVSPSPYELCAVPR

[9] = tested on: Staphylococcus epidermidis; experiment: Antibacterial activity against methicillin-resistant Staphylococcus epidermidis after 16 hrs by agar dilution method; type: functional
[10] = target: T2, Cytochrome P450 1A2 (Homo sapiens, UniProt P05177); experiment: Inhibition of CYP1A2 in human liver microsomes using phenacetin as substrate after 15 mins by LC/MS/MS analysis
T2 sequence (P05177 whole entry): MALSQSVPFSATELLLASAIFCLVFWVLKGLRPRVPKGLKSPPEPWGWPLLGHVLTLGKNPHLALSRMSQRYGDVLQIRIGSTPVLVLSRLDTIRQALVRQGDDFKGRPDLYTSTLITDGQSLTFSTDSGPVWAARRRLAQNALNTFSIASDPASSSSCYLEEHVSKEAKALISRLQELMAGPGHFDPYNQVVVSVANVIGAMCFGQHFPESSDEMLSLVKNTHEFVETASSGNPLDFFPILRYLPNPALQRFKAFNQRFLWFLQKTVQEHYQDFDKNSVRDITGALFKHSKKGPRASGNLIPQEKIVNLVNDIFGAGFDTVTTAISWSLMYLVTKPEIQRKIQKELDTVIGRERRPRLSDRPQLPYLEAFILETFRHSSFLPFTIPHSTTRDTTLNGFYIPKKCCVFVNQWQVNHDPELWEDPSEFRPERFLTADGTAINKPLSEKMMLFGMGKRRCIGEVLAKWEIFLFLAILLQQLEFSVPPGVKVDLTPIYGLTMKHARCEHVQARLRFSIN

[11] = target: Cytochrome P450 2C9 (Homo sapiens, UniProt P11712); experiment: Inhibition of CYP2C9 in human liver microsomes using tolbutamide as substrate after 15 mins by LC/MS/MS analysis
Cytochrome P450 2C9, sequence (P11712 whole entry): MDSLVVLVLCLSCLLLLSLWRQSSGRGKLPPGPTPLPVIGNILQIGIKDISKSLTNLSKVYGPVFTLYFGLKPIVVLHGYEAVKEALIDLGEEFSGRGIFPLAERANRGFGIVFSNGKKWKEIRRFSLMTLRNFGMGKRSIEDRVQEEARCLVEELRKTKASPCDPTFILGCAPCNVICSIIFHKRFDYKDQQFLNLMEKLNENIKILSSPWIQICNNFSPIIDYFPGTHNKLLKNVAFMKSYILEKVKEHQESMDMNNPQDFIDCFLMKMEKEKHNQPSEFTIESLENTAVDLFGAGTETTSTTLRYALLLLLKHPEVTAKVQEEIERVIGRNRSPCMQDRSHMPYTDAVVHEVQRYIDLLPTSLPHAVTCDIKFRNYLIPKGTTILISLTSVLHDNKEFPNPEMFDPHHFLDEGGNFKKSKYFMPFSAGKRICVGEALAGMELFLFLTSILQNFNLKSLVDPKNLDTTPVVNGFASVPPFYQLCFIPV

[12] = tested on: Staphylococcus aureus; experiment: Antibacterial activity against methicillin-sensitive Staphylococcus aureus after 16 hrs by agar dilution method; type: functional
[13] = Mean residence time in Sprague-Dawley rat at 2 mg/kg, iv administered as cassette dosing; type: ADME, organism-based; parameters: dose 2 mg/kg, route intravenous; conditions: in vivo
[14] = Clearance in Sprague-Dawley rat at 2 mg/kg, iv administered as cassette dosing; type: ADME, organism-based; parameters: dose 2 mg/kg, route intravenous; conditions: in vivo
[15] = Elimination half life in Sprague-Dawley rat at 2 mg/kg, iv administered as cassette dosing; type: ADME, organism-based; parameters: dose 2 mg/kg, route intravenous; conditions: in vivo, read-out: beta t1/2 (converted)
[16] = Volume of distribution at steady state in Sprague-Dawley rat at 2 mg/kg, iv administered as cassette dosing; type: ADME, organism-based; parameters: dose 2 mg/kg, route intravenous; conditions: in vivo, read-out: Vdss
[17] = AUC (0 to t) in Sprague-Dawley rat at 2 mg/kg, iv administered as cassette dosing; type: ADME, organism-based; parameters: dose 2 mg/kg, route intravenous; conditions: plasma
[18] = tested on: Staphylococcus aureus; experiment: Antibacterial activity against of methicillin-sensitive Staphylococcus aureus ATCC 19636 infected in iv dosed mouse administered 1 hr after infection measured after 48 hrs; type: functional
[19] = tested on: Staphylococcus aureus; experiment: Antibacterial activity against of methicillin-sensitive Staphylococcus aureus ATCC 19636 infected in iv dosed mouse assessed as host survival administered 1 hr after infection measured after 48 hrs; type: functional; conditions: ATCC 19636, iv
[20] = Aqueous solubility of the compound in water at pH 7.4; conditions: buffer

SMILES | MIC [1] | MIC [2] | IC50 [3] | IC50 [4] | IC50 [5] | MIC [6] | MIC [7] | IC50 [8] | MIC [9] | IC50 [10] | IC50 [11] | MIC [12] | MRT [13] | clearance [14] | half-life [15] | Vd [16] | AUC(0-t) [17] | MIC [18] | ED50 [19] | solubility [20]
C=C[C@]1(C)C[C@@H](OC(=O)CSc2cccc(CO)c2)[C@]2(C)[C@H](C)CC[C@]3(CCC(=O)[C@H]32)[C@@H](C)[C@@H]1O | 0.063 µg/mL (≈ 0.126 µM) | 0.063 µg/mL (≈ 0.126 µM) | 15.4 µM | 1900 nM | 1950 nM | 0.063 µg/mL (≈ 0.126 µM) | 0.063 µg/mL (≈ 0.126 µM) | > 25 µM | 0.063 µg/mL (≈ 0.126 µM) | > 25 µM | 11.1 µM | 0.063 µg/mL (≈ 0.126 µM) |  |  |  |  |  |  |  | 
C=C[C@]1(C)C[C@@H](OC(=O)CSc2cncc(NC(=O)CN3CCCC(O)C3)c2)[C@]2(C)[C@H](C)CC[C@]3(CCC(=O)[C@H]32)[C@@H](C)[C@@H]1O (some centres not stated) | 0.063 µg/mL (≈ 0.1 µM) | 0.063 µg/mL (≈ 0.1 µM) | 12.4 µM | 1240 nM | 1080 nM | 0.063 µg/mL (≈ 0.1 µM) | 0.063 µg/mL (≈ 0.1 µM) | > 25 µM | 0.063 µg/mL (≈ 0.1 µM) | > 25 µM | > 25 µM | 0.063 µg/mL (≈ 0.1 µM) | 28.8 min | 65 mL/min/kg | 40.2 min | 1.9 L/kg | 522 ng·h/mL |  |  | 
C=C[C@]1(C)C[C@@H](OC(=O)CSc2cncc(NC(=O)CN)c2)[C@]2(C)[C@H](C)CC[C@]3(CCC(=O)[C@H]32)[C@@H](C)[C@@H]1O | 0.063 µg/mL (≈ 0.116 µM) | 0.063 µg/mL (≈ 0.116 µM) |  |  |  | 0.125 µg/mL (≈ 0.23 µM) | 0.063 µg/mL (≈ 0.116 µM) |  | 0.125 µg/mL (≈ 0.23 µM) |  |  | 0.063 µg/mL (≈ 0.116 µM) | 16.8 min | 828 mL/min/kg | 20.4 min | 13.8 L/kg | 41 ng·h/mL |  |  | 
C=C[C@]1(C)C[C@@H](OC(=O)CS[C@@H]2CC[C@@H](N)C[C@H]2O)[C@]2(C)[C@H](C)CC[C@]3(CCC(=O)[C@H]32)[C@@H](C)[C@@H]1O [LEFAMULIN] |  |  | > 25 µM | 4430 nM | 4650 nM |  |  | > 25 µM |  | > 25 µM | > 25 µM |  | 228 min | 122 mL/min/kg | 264 min | 27.6 L/kg | 275 ng·h/mL | 0.031 µg/mL (≈ 0.0611 µM) | 3.08 mg/kg | 
C=C[C@]1(C)C[C@@H](OC(=O)CSc2cncc(N)c2)[C@]2(C)[C@H](C)CC[C@]3(CCC(=O)[C@H]32)[C@@H](C)[C@@H]1O | 0.031 µg/mL (≈ 0.0637 µM) | 0.063 µg/mL (≈ 0.129 µM) | 15.5 µM | 44.4 nM | 135 nM | 0.031 µg/mL (≈ 0.0637 µM) | 0.031 µg/mL (≈ 0.0637 µM) | 17.1 µM | 0.031 µg/mL (≈ 0.0637 µM) | > 25 µM | > 25 µM | 0.063 µg/mL (≈ 0.129 µM) |  |  |  |  |  |  |  | Insoluble
C=C[C@]1(C)C[C@@H](OC(=O)CSc2ccccn2)[C@]2(C)[C@H](C)CC[C@]3(CCC(=O)[C@H]32)[C@@H](C)[C@@H]1O | 0.031 µg/mL (≈ 0.0657 µM) | 0.031 µg/mL (≈ 0.0657 µM) | > 10 µM | 1360 nM | 1250 nM | 0.031 µg/mL (≈ 0.0657 µM) | 0.063 µg/mL (≈ 0.134 µM) | > 10 µM | 0.031 µg/mL (≈ 0.0657 µM) | > 10 µM | > 10 µM | 0.031 µg/mL (≈ 0.0657 µM) |  |  |  |  |  |  |  | 
C=C[C@]1(C)C[C@@H](OC(=O)CSc2cncc(/C=N/OC)c2)[C@]2(C)[C@H](C)CC[C@]3(CCC(=O)[C@H]32)[C@@H](C)[C@@H]1O | 0.25 µg/mL (≈ 0.473 µM) | 0.5 µg/mL (≈ 0.946 µM) |  |  |  | 0.25 µg/mL (≈ 0.473 µM) | 0.125 µg/mL (≈ 0.236 µM) |  | 0.25 µg/mL (≈ 0.473 µM) |  |  | 0.125 µg/mL (≈ 0.236 µM) |  |  |  |  |  |  |  | 
C=C[C@]1(C)C[C@@H](OC(=O)CSc2ncccn2)[C@]2(C)[C@H](C)CC[C@]3(CCC(=O)[C@H]32)[C@@H](C)[C@@H]1O | 0.063 µg/mL (≈ 0.133 µM) | 0.125 µg/mL (≈ 0.264 µM) |  |  |  | 0.125 µg/mL (≈ 0.264 µM) | 0.125 µg/mL (≈ 0.264 µM) |  | 0.063 µg/mL (≈ 0.133 µM) |  |  | 0.125 µg/mL (≈ 0.264 µM) |  |  |  |  |  |  |  | 
C=C[C@]1(C)C[C@@H](OC(=O)CSc2cncc(OC)c2)[C@]2(C)[C@H](C)CC[C@]3(CCC(=O)[C@H]32)[C@@H](C)[C@@H]1O | 0.125 µg/mL (≈ 0.249 µM) | 0.125 µg/mL (≈ 0.249 µM) |  |  |  | 2 µg/mL (≈ 3.99 µM) | 1 µg/mL (≈ 1.99 µM) |  | 0.125 µg/mL (≈ 0.249 µM) |  |  | 0.125 µg/mL (≈ 0.249 µM) |  |  |  |  |  |  |  | 
C=C[C@]1(C)C[C@@H](OC(=O)CSc2ccncc2CO)[C@]2(C)[C@H](C)CC[C@]3(CCC(=O)[C@H]32)[C@@H](C)[C@@H]1O | 0.063 µg/mL (≈ 0.126 µM) | 0.125 µg/mL (≈ 0.249 µM) |  |  |  | 0.063 µg/mL (≈ 0.126 µM) | 0.063 µg/mL (≈ 0.126 µM) |  | 0.063 µg/mL (≈ 0.126 µM) |  |  | 0.063 µg/mL (≈ 0.126 µM) |  |  |  |  |  |  |  | 
